Consider three molecules from patent US12077503B2, “Substituted cyclic amides and their use as herbicides” (FMC CORPORATION, priority 2015, dated 2024).

Structures are written as SMILES. Like-named read-outs stand apart in the source and are kept apart here.

Holding throughout (type): in vivo
Assay [1] concerns barnyardgrass (Echinochloa crus-galli). The assay is described as follows: Test A postemergence. The conditions noted are these: Echinochloa crus-galli, post-emergence, 240 h; for pest or weed control at 125 g/ha: 125 g ai/ha; for pest or weed control at 500 g/ha: 500 g ai/ha, visual injury, approx. 10 d. The method in brief:
(§1)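 Seeded soil received test chemicals as a preemergence directed spray, and seedlings at one to two leaves, 2–10 cm tall, received them postemergence, in a non-phytotoxic, surfactant-containing solvent mixture. Pots were held in a greenhouse for approximately 10 d, then rated for injury from 0, no effect, to 100, complete control.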

Assay [2] relates to Kochia (Kochia scoparia). The assay is described as follows: Test A postemergence. As to conditions: Bassia scoparia, post-emergence, 240 h; for pest or weed control at 125 g/ha: 125 g ai/ha; for pest or weed control at 500 g/ha: 500 g ai/ha, visual injury, approx. 10 d. In a few lines:
as §1

Assay [3] relates to giant foxtail (Setaria faberii). The assay is described as follows: Test A postemergence. As to conditions: Setaria faberi, post-emergence, 240 h; for pest or weed control at 125 g/ha: 125 g ai/ha; for pest or weed control at 500 g/ha: 500 g ai/ha, visual injury, approx. 10 d. The method in brief: as §1
Assay [4] deals with wheat (Triticum aestivum). The assay is described as follows: Test A postemergence. As to conditions: Triticum aestivum, post-emergence, 240 h; for plant injury at 125 g/ha: 125 g ai/ha; for plant injury at 500 g/ha: 500 g ai/ha, visual injury, approx. 10 d. The method in brief: as §1
Assay [5] has as its system blackgrass (Alopecurus myosuroides). The assay is described as follows: Test A postemergence. The conditions noted are these: Alopecurus myosuroides, post-emergence, 240 h; for pest or weed control at 125 g/ha: 125 g ai/ha; for pest or weed control at 500 g/ha: 500 g ai/ha, visual injury, approx. 10 d. In a few lines:
as §1

The test system of assay [6] is ryegrass, Italian (Italian ryegrass, Lolium multiflorum). The assay is described as follows: Test A postemergence. The conditions noted are these: Lolium multiflorum, post-emergence, 240 h; for pest or weed control at 125 g/ha: 125 g ai/ha; for pest or weed control at 500 g/ha: 500 g ai/ha, visual injury, approx. 10 d. In a few lines: as §1
The test system of assay [7] is Galium (catchweed bedstraw, Galium aparine). The assay is described as follows: Test A postemergence. As to conditions: Galium, post-emergence, 240 h; for pest or weed control at 125 g/ha: 125 g ai/ha; for pest or weed control at 500 g/ha: 500 g ai/ha, visual injury, approx. 10 d. In a few lines:
as §1

Assay [8] deals with corn (Zea mays). The assay is described as follows: Test A postemergence. The conditions noted are these: Zea mays, post-emergence, 240 h; for plant injury at 125 g/ha / Corn plant response rating (crop injury, 0 = no effect, 100 = complete kill) at 500 g/ha: Postemergence; for plant injury at 125 g/ha: visual rating about 10 d after treatment, read-out: Corn plant response rating (0 to 100 scale); for Corn plant response rating (crop injury, 0 = no effect, 100 = complete kill) at 500 g/ha: 500 g ai/ha, visual injury, approx. 10 d. In a few lines: as §1

Assay [9] relates to ragweed (common ragweed, Ambrosia elatior). The assay is described as follows: Test A postemergence. The conditions noted are these: Ambrosia artemisiifolia, post-emergence, 240 h; for pest or weed control at 125 g/ha: 125 g ai/ha; for pest or weed control at 500 g/ha: 500 g ai/ha, visual injury, approx. 10 d. The method in brief:
as §1

In assay [10] the test system is pigweed (Amaranthus retroflexus). The assay is described as follows: Test A postemergence. The conditions noted are these: Amaranthus retroflexus, post-emergence, 240 h; for pest or weed control at 125 g/ha: 125 g ai/ha; for pest or weed control at 500 g/ha: 500 g ai/ha, visual injury, approx. 10 d. In a few lines:
as §1

Assay [11] deals with rice (Oryra sativa). The assay is described as follows: Test B flooded paddy test. The conditions noted are these: Oryza sativa, Flood, 250 g ai/ha. In a few lines: (§2)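 Evaluation by eye, against controls, occurred 13–15 d post-treatment in a greenhouse, using a 0 (no effect) to 100 (complete control) scale. Application was into the paddy water, 3 cm deep over the soil, on 2-leaf plants.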

Assay [12] deals with barnyardgrass (Echinochloa crus-galli). The assay is described as follows: Test B flooded paddy test. The conditions noted are these: Echinochloa crus-galli, Flood, 250 g ai/ha. In a few lines:
as §2

Assay [13] relates to ducksalad (Heteranthera limosa). The assay is described as follows: Test B flooded paddy test. The conditions noted are these: Heteranthera limosa, Flood, 250 g ai/ha. The method in brief:
as §2

Assay [14] relates to sedge, umbrella (small-flower umbrella sedge, Cyperus difformis). The assay is described as follows: Test B flooded paddy test. The conditions noted are these: Cyperus difformis, Flood, 250 g ai/ha. The method in brief: as §2
The mark [15] stands for this setting: Postemergence, visual rating about 10 d after treatment, read-out: Barnyardgrass plant response rating (0 to 100 scale, 0 no effect, 100 complete control).
Where [16] appears, read: Postemergence, 0 to 100 scale (0 no effect, 100 complete control), read-out: Plant response rating, Barnyardgrass.
Setting [17] is: Postemergence, visual rating about 10 d after treatment, read-out: Kochia plant response rating (0 to 100 scale).
Where [18] appears, read: Postemergence, 0 to 100 scale (0 no effect, 100 complete control), read-out: Plant response rating, Kochia.
Where [19] appears, read: Postemergence, visual rating about 10 d after treatment, read-out: Foxtail, Giant plant response rating (0 to 100 scale).
Where [20] appears, read: Postemergence, 0 to 100 scale (0 no effect, 100 complete control), read-out: Plant response rating, Foxtail, Giant.
Where [21] appears, read: Postemergence, visual rating about 10 d after treatment, read-out: Wheat plant response rating (0 to 100 scale).
[22] abbreviates: Postemergence, 0 to 100 scale (0 no effect, 100 complete control), read-out: Plant response rating, Wheat.
Setting [23] is: Postemergence, visual rating about 10 d after treatment, read-out: Blackgrass plant response rating (0 to 100 scale).
[24] abbreviates: Postemergence, 0 to 100 scale (0 no effect, 100 complete control), read-out: Plant response rating, Blackgrass.
[25] abbreviates: Postemergence, visual rating about 10 d after treatment, read-out: Ryegrass, Italian plant response rating (0 to 100 scale).
[26] abbreviates: Postemergence, 0 to 100 scale (0 no effect, 100 complete control), read-out: Plant response rating, Ryegrass, Italian.
Setting [27] is: Postemergence, visual rating about 10 d after treatment, read-out: Galium plant response rating (0 to 100 scale).
Where [28] appears, read: Postemergence, 0 to 100 scale (0 no effect, 100 complete control), read-out: Plant response rating, Galium.
The mark [29] stands for this setting: 0 to 100 scale (0 no effect, 100 complete control).
Setting [30] is: Postemergence, visual rating about 10 d after treatment, read-out: Ragweed plant response rating (0 to 100 scale).
[31] abbreviates: Postemergence, 0 to 100 scale (0 no effect, 100 complete control), read-out: Plant response rating, Ragweed.
[32] abbreviates: Postemergence, visual rating about 10 d after treatment, read-out: Pigweed plant response rating (0 to 100 scale).
The mark [33] stands for this setting: Postemergence, 0 to 100 scale (0 no effect, 100 complete control), read-out: Plant response rating, Pigweed.
[34] abbreviates: 360 h, visually evaluated after 13 to 15 d, read-out: Plant response rating, Rice (0 to 100 scale where 0 is no effect and 100 is complete control).
[35] abbreviates: 360 h, visually evaluated after 13 to 15 d, read-out: Plant response rating, Barnyardgrass (0 to 100 scale where 0 is no effect and 100 is complete control).
[36] abbreviates: 360 h, visually evaluated after 13 to 15 d, read-out: Plant response rating, Ducksalad (0 to 100 scale where 0 is no effect and 100 is complete control).
The mark [37] stands for this setting: 360 h, visually evaluated after 13 to 15 d, read-out: Plant response rating, Sedge, Umbrella (0 to 100 scale where 0 is no effect and 100 is complete control).

For the molecule `CO[C@]1(C(=O)Nc2cccc(F)c2F)C(=O)N(C)C[C@@H]1c1ccc(C(F)(F)F)cc1` (racemic) [Compound 1334], the pest or weed control at 125 g/ha in assay [1] (setting [15]) was 0%; in assay [2] (setting [17]) it was 0%; in assay [3] (setting [19]), 0%; in [5] (setting [23]), 0%; in [6] (setting [25]), 0%; in [7] (setting [27]), 50%. Further, the pest or weed control at 125 g/ha in assay [9] (setting [30]) was 0%; in assay [10] (setting [32]) it was 30%. Further, the pest or weed control at 500 g/ha in [1] (setting [16]) stood at 50%; in [2] (setting [18]), 0%; in assay [3] (setting [20]) it was 50%; in assay [5] (setting [24]), 0%; in assay [6] (setting [26]) it was 20%; in assay [7] (setting [28]) it was 50%. The pest or weed control at 500 g/ha was found to be 20% in assay [9] (setting [31]) and 40% in assay [10] (setting [33]). Moreover, the plant injury at 125 g/ha in assay [4] (setting [21]) and in [8] (125 g ai/ha) was 0% throughout. Besides, in [4] (setting [22]), the plant injury at 500 g/ha turned out to be 0%. The molecule further came in with a Corn plant response rating (crop injury, 0 = no effect, 100 = complete kill) at 500 g/ha in assay [8] (setting [29]) of 30%. In addition, the pest or weed control at 250 g/ha was determined as 0% in [11] (setting [34]), 0% in assay [12] (setting [35]), 90% in assay [13] (setting [36]) and 0% in [14] (setting [37]).
As for `O=C1NC[C@H](c2cc(C(F)(F)F)ccn2)[C@H]1C(=O)Nc1cccc(F)c1F` (racemic) [Compound 1376], the pest or weed control at 125 g/ha stood at 90% in [1] (setting [15]); 0% in [2] (setting [17]); 80% in assay [3] (setting [19]); 20% in [5] (setting [23]); 0% in assay [6] (setting [25]); 0% in assay [7] (setting [27]). The pest or weed control at 125 g/ha in assay [9] (setting [30]) and in assay [10] (setting [32]) was 0% in each case. Further, the pest or weed control at 500 g/ha in assay [1] (setting [16]) is 90%; in [2] (setting [18]), 20%; in [3] (setting [20]), 80%; in assay [5] (setting [24]) it was 70%; in assay [6] (setting [26]), 30%; in assay [7] (setting [28]), 30%. Moreover, the pest or weed control at 500 g/ha is 0% in assay [9] (setting [31]) and 20% in assay [10] (setting [33]). In addition, the plant injury at 125 g/ha in assay [4] (setting [21]) and in [8] (125 g ai/ha) was 0% throughout. Besides, the plant injury at 500 g/ha in assay [4] (setting [22]) turned out to be 60%. Further, the Corn plant response rating (crop injury, 0 = no effect, 100 = complete kill) at 500 g/ha in assay [8] (setting [29]) was 30%. Also, the pest or weed control at 250 g/ha in assay [11] (setting [34]) is 0%; in assay [12] (setting [35]), 40%; in assay [13] (setting [36]) it was 70%; in [14] (setting [37]), 0%.
As for `COc1ccc([C@H]2CNC(=O)[C@@H]2C(=O)Nc2ccccc2S(C)(=O)=O)cc1F` [Compound 721], the pest or weed control at 125 g/ha came out at 10% in assay [1] (postemergence, visual injury after approximately 10 d, 0 to 100 scale (0 no effect, 100 complete control), read-out: Plant response rating, Barnyardgrass); 0% in [2] (postemergence, visual injury after approximately 10 d, 0 to 100 scale (0 no effect, 100 complete control), read-out: Plant response rating, Kochia); 0% in assay [3] (postemergence, visual injury after approximately 10 d, 0 to 100 scale (0 no effect, 100 complete control), read-out: Plant response rating, Foxtail, Giant); 0% in assay [5] (postemergence, visual injury after approximately 10 d, 0 to 100 scale (0 no effect, 100 complete control), read-out: Plant response rating, Blackgrass); 0% in [6] (postemergence, visual injury after approximately 10 d, 0 to 100 scale (0 no effect, 100 complete control), read-out: Plant response rating, Ryegrass, Italian); 20% in assay [7] (postemergence, visual injury after approximately 10 d, 0 to 100 scale (0 no effect, 100 complete control), read-out: Plant response rating, Galium). The pest or weed control at 125 g/ha came to 0% in assay [9] (postemergence, visual injury after approximately 10 d, 0 to 100 scale (0 no effect, 100 complete control), read-out: Plant response rating, Ragweed) and 0% in assay [10] (postemergence, visual injury after approximately 10 d, 0 to 100 scale (0 no effect, 100 complete control), read-out: Plant response rating, Pigweed). In assay [4] (postemergence, visual injury after approximately 10 d, 0 to 100 scale (0 no effect, 100 complete control), read-out: Plant response rating, Wheat), the plant injury at 125 g/ha worked out at 0%. In addition, the Corn plant response rating (crop injury, 0 = no effect, 100 = complete kill) at 125 g/ha in assay [8] (125 g ai/ha, postemergence, visual injury after approximately 10 d, 0 to 100 scale (0 no effect, 100 complete control)) came out at 0%. Also, the pest or weed control at 250 g/ha was found to be 0% in [11] (scale of 0 to 100 where 0 is no effect and 100 is complete control, read-out: Rice plant response rating); 0% in [12] (scale of 0 to 100 where 0 is no effect and 100 is complete control, read-out: Barnyardgrass plant response rating); 100% in assay [13] (scale of 0 to 100 where 0 is no effect and 100 is complete control, read-out: Ducksalad plant response rating); 0% in assay [14] (scale of 0 to 100 where 0 is no effect and 100 is complete control, read-out: Sedge, Umbrella plant response rating).
